The results in this text go back to ChEMBL document CHEMBL1201862, “PubChem BioAssay data set” (2004).

The source made the active and inactive calls.

By EC50 is commonly meant the concentration needed to bring the measured effect to its halfway point. A word on the IC50: it is the concentration that inhibits the measured activity by half. By CC50 is commonly meant the concentration at which the toxic effect on the cells reaches its halfway point.

One assay is described as follows: cells. It is filed as functional, cell-based.
In another assay the target is T1, Protein skinhead-1 (Caenorhabditis elegans, UniProt P34707).
T1 sequence (P34707 whole entry): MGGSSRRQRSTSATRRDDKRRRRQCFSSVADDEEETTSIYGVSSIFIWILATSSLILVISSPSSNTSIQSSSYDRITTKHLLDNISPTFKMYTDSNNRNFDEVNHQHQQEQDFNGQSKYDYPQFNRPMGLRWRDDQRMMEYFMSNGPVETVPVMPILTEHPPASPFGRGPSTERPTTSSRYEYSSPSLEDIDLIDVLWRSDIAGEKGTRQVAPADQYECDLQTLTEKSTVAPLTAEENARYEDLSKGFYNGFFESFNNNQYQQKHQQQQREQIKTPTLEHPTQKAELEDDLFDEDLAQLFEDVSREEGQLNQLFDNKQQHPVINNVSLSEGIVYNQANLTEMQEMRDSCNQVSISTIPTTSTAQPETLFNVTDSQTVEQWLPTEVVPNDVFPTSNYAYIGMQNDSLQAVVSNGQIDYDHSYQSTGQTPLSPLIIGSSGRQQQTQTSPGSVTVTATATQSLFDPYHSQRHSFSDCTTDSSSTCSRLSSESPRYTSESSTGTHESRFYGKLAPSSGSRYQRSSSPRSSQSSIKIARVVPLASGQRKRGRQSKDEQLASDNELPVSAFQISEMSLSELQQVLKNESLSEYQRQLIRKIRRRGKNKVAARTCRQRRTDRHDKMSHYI
It is filed as functional.

Assay [1] in a line: THP-1 cell cytotoxicity, dose response, cytotoxicity control for non-replicating M. tuberculosis project (AID 489025). It is filed as functional.

Turning to `CC(=O)NC(c1ccc2ccccc2c1)c1ccc2cccnc2c1O` (stereo not drawn), in the assay “cells”, the EC50 is 7.14 µM (active).
For `CCOC(=O)c1c(C)oc2c1c(/C=N/CCC(=O)O)c(O)c1ccccc12`, the IC50 at Protein skinhead-1 was > 100 µM (inactive).
Turning to `CCOC(=O)C1=C(c2ccccc2)N=C(N)NC1c1ccc(OCc2ccc(Cl)cc2)c(OC)c1` (stereo not drawn), the CC50 in assay [1] was 9.43 µM (active).
